From patent US4472582A, “3,5-Disubstituted-4'-(9-acridinylamino)-methane-sulfon-m-anisidide compounds having antitumor properties” (Development Finance Corporation of New Zealand, priority 1979, dated 1984)

test system: L1210 leukemia (ip); assay: Antileukemic screen, L1210 tumour ip, drug ip qd 1-5; type: in vivo, mice (C3H/DBA2 F1 hybrids); settings: L1210-ip, qd 1-5; Table IV
From the text: In initial screening a standard drug administration schedule has been employed (ip, qd 1-5) and mice (C3 H/DBA2 F1 hybrids) bred in the laboratory, receive a standard tumor inoculum of 10^5 L1210 cells ip on day 0. After range finding experiments, an LD10 dose has then been derived employing doses separated by 0.05 log.dose units, an acceptable soluble drug formulation (B. F. Cain, R. N. Seelye and G. J. Atwell, J. Med. Chem., 17, 922-930 (1974)) and groups of six tumored mice at each dose level. Deaths occuring before day 8 have been taken as resulting from drug toxicity. From the linear regression relating percent probit-mortality and the logarithms of the corresponding doses, an LD10 value has been derived. Profiles of antileukemic activity have been obtained employing doses separated by 0.09 log.dose intervals. Significant percentage increases in life span of leukemic animals, obtained at and below the LD10 dose, have been linearly correlated with the logarithms of the corresponding doses. The increase in life span (ILS) specified by the life extension-log.dose regression line at the measured LD10 provides a representative measure of antileukemic effectiveness at a standard host load in toxicity (W. A. Denny and B. F. Cain, J. Med. Chem., 21, 430-437 (1978)). For congener selection ILS has been employed as a measure of factor (1) above and LD10 for factor (2). Desirable drug pharmacokinetic properties (factor (3)) have been screened for by employing standard ip drug administration and implanting tumor more remotely; either subcutaneously (sc) or intracerabrally (ic) (B. F. Cain and G. J. Atwell Europ J. Cancer, 10, 539 549 (1974), B. F. Cain and G. J. Atwell, J. Med. Chem., 19 1409-1416 (1976)).
ILS and LD10=as defined above.
D40=the drug dose necessary to provide 40% ILS in standard L1210 assays.

Question: With `COc1cc(NS(C)(=O)=O)ccc1Nc1c2ccccc2nc2cc(Br)c(N)cc12` [Compound C1] as the molecule, how does the “ILS Observed” value read?
Answer: 90%

Question: `COc1cc(NS(C)(=O)=O)ccc1Nc1c2ccccc2nc2cc(C(F)(F)F)c(N)cc12` [Compound C2] was tested. Which “ILS Observed” value did it give?
Answer: 108%

Question: Which “ILS Observed” value does the source give for `COc1cc(NS(C)(=O)=O)ccc1Nc1c2ccccc2nc2c(C)c([N+](=O)[O-])ccc12` [Compound C3] here?
Answer: 54%

Question: For `COc1cc(NS(C)(=O)=O)ccc1Nc1c2ccccc2nc2c(C)c(C)ccc12` [Compound C4], which “ILS Observed” value is on record?
Answer: 79%

Question: With `COc1cc(NS(C)(=O)=O)ccc1Nc1c2ccc([N+](=O)[O-])cc2nc2c(C)cccc12` [Compound C5] as the molecule, how does the “ILS Observed” value read?
Answer: 107%

Question: Which “ILS Observed” value does the source give for `COc1cc(NS(C)(=O)=O)ccc1Nc1c2ccc([N+](=O)[O-])cc2nc2c(OC)cccc12` [Compound C6] here?
Answer: 66%

Question: `COc1cc(NS(C)(=O)=O)ccc1Nc1c2ccc(N)cc2nc2c(C)cccc12` [Compound C7] was tested. Which “ILS Observed” value did it give?
Answer: 125%

Question: For `COc1cc(NS(C)(=O)=O)ccc1Nc1c2ccc(I)cc2nc2c(C)cccc12` [Compound C8], which “ILS Observed” value is on record?
Answer: 86%

Question: Which “ILS Observed” value does the source give for `COc1cc(NS(C)(=O)=O)ccc1Nc1c2ccc(I)cc2nc2c(OC)cccc12` [Compound C9] here?
Answer: 63%

Question: `CNc1ccc2c(Nc3ccc(NS(C)(=O)=O)cc3OC)c3cccc(C)c3nc2c1` [Compound C10] was tested. Which “ILS Observed” value did it give?
Answer: 68%

Question: `COc1cc(NS(C)(=O)=O)ccc1Nc1c2ccc(Cl)cc2nc2c(C)cccc12` [Compound C11] was tested. Which “ILS Observed” value did it give?
Answer: 57%

Question: `COc1cc(NS(C)(=O)=O)ccc1Nc1c2ccc(Cl)cc2nc2c(OC)cccc12` [Compound C12] was tested. Which “ILS Observed” value did it give?
Answer: 82%

Question: `COc1cc(NS(C)(=O)=O)ccc1Nc1c2ccc(C)cc2nc2c(C)cccc12` [Compound C13] was tested. Which “ILS Observed” value did it give?
Answer: 97%

Question: How did the “ILS Observed” value turn out when `COc1cc(NS(C)(=O)=O)ccc1Nc1c2ccc(C)cc2nc2c(C(N)=O)cccc12` [Compound C14] was run?
Answer: 100%

Question: With `COc1cc(NS(C)(=O)=O)ccc1Nc1c2ccc(Cl)cc2nc2c(C(N)=O)cccc12` [Compound C15] as the molecule, how does the “ILS Observed” value read?
Answer: 90%

Question: How did the “ILS Observed” value turn out when `COc1cc(NS(C)(=O)=O)ccc1Nc1c2ccc([N+](=O)[O-])cc2nc2c(C(N)=O)cccc12` [Compound C16] was run?
Answer: 100%

Question: `COc1cc(NS(C)(=O)=O)ccc1Nc1c2ccc(C(N)=O)cc2nc2c(C)cccc12` [Compound C17] was tested. Which “ILS Observed” value did it give?
Answer: 150%

Question: `COc1cc(NS(C)(=O)=O)ccc1Nc1c2ccc(C(N)=O)cc2nc2c(OC)cccc12` [Compound C18] was tested. Which “ILS Observed” value did it give?
Answer: 70%

Question: For `COc1cc(NS(C)(=O)=O)ccc1Nc1c2ccc(Cl)cc2nc2cc(Cl)ccc12` [Compound C19], which “ILS Observed” value is on record?
Answer: 52%

Question: With `COc1cc(NS(C)(=O)=O)ccc1Nc1c2ccc(Cl)cc2nc2cc(C(F)(F)F)ccc12` [Compound C20] as the molecule, how does the “ILS Observed” value read?
Answer: 5%

Question: `COc1cc(NS(C)(=O)=O)ccc1Nc1c2ccc(Br)cc2nc2cc(Br)ccc12` [Compound C21] was tested. Which “ILS Observed” value did it give?
Answer: 82%

Question: `COc1cc(NS(C)(=O)=O)ccc1Nc1c2ccc(C)cc2nc2cc([N+](=O)[O-])ccc12` [Compound C22] was tested. Which “ILS Observed” value did it give?
Answer: 91%

Question: For `COc1cc(NS(C)(=O)=O)ccc1Nc1c2ccc([N+](=O)[O-])cc2nc2cc([N+](=O)[O-])ccc12` [Compound C23], which “ILS Observed” value is on record?
Answer: 58%

Question: For `COc1cc(NS(C)(=O)=O)ccc1Nc1c2cccc(C)c2nc2c(C)cccc12` [Compound C24], which “ILS Observed” value is on record?
Answer: 87%

Question: How did the “ILS Observed” value turn out when `COc1cc(NS(C)(=O)=O)ccc1Nc1c2ccccc2nc2c(C)c(C)c(N)cc12` [Compound C25] was run?
Answer: 61%

Question: How did the “ILS Observed” value turn out when `COc1cc(NS(C)(=O)=O)ccc1Nc1c2cc(N)c(Br)cc2nc2c(C)cccc12` [Compound C26] was run?
Answer: 83%

Question: `COc1cc(NS(C)(=O)=O)ccc1Nc1c2cccc(C)c2nc2c(C)c([N+](=O)[O-])ccc12` [Compound C27] was tested. Which “ILS Observed” value did it give?
Answer: 28%

Question: `COc1cc(NS(C)(=O)=O)ccc1Nc1c2cccc(C)c2nc2c(C)c(C)ccc12` [Compound C28] was tested. Which “ILS Observed” value did it give?
Answer: 76%

Question: `COc1cc(NS(C)(=O)=O)ccc1Nc1c2ccc(C)cc2nc2c(C)c(C)ccc12` [Compound C29] was tested. Which “ILS Observed” value did it give?
Answer: 58%

Question: How did the “ILS Observed” value turn out when `COc1cc(NS(C)(=O)=O)ccc1Nc1c2ccc([N+](=O)[O-])cc2nc2c(C)c(C)ccc12` [Compound C30] was run?
Answer: 92%

Question: How did the “ILS Observed” value turn out when `COc1cc(NS(C)(=O)=O)ccc1Nc1c2ccc(N)cc2nc2c(C)c(C)ccc12` [Compound C31] was run?
Answer: 79%

Question: `CNc1ccc2c(Nc3ccc(NS(C)(=O)=O)cc3OC)c3ccc(C)c(C)c3nc2c1` [Compound C32] was tested. Which “ILS Observed” value did it give?
Answer: 64%

same assay, conditions: in words

Question: `COc1cc(NS(C)(=O)=O)ccc1Nc1c2ccccc2nc2cc(C(F)(F)F)c(N)cc12` [Compound C2] was tested. Which “Observed ILS compared with predicted ILS” value did it give?
Answer: observed ILS values greater than their predicted ILS values

Question: With `COc1cc(NS(C)(=O)=O)ccc1Nc1c2ccc([N+](=O)[O-])cc2nc2c(C)cccc12` [Compound C5] as the molecule, how does the “Observed ILS compared with predicted ILS” value read?
Answer: observed ILS values greater than their predicted ILS values

Question: How did the “Observed ILS compared with predicted ILS” value turn out when `COc1cc(NS(C)(=O)=O)ccc1Nc1c2ccc(N)cc2nc2c(C)cccc12` [Compound C7] was run?
Answer: observed ILS values greater than their predicted ILS values

Question: Which “Observed ILS compared with predicted ILS” value does the source give for `COc1cc(NS(C)(=O)=O)ccc1Nc1c2ccc([N+](=O)[O-])cc2nc2c(C(N)=O)cccc12` [Compound C16] here?
Answer: observed ILS values greater than their predicted ILS values

Question: `COc1cc(NS(C)(=O)=O)ccc1Nc1c2ccc(C(N)=O)cc2nc2c(C)cccc12` [Compound C17] was tested. Which “Observed ILS compared with predicted ILS” value did it give?
Answer: observed ILS values greater than their predicted ILS values

Question: For `COc1cc(NS(C)(=O)=O)ccc1Nc1c2ccc(C)cc2nc2cc([N+](=O)[O-])ccc12` [Compound C22], which “Observed ILS compared with predicted ILS” value is on record?
Answer: observed ILS values greater than their predicted ILS values

same assay, conditions: monosubstituted m-AMSA; Table V

Question: For `COc1cc(NS(C)(=O)=O)ccc1Nc1c2ccccc2nc2ccc(N)cc12` [Compound M1], which “ILS Observed” value is on record?
Answer: 106%

Question: With `COc1cc(NS(C)(=O)=O)ccc1Nc1c2ccccc2nc2cc(C)ccc12` [Compound M2] as the molecule, how does the “ILS Observed” value read?
Answer: 88%

Question: Which “ILS Observed” value does the source give for `COc1cc(NS(C)(=O)=O)ccc1Nc1c2ccccc2nc2cc(C(N)=O)ccc12` [Compound M3] here?
Answer: 150%

Question: Which “ILS Observed” value does the source give for `CNC(=O)c1ccc2c(Nc3ccc(NS(C)(=O)=O)cc3OC)c3ccccc3nc2c1` [Compound M4] here?
Answer: 92%

Question: `COc1cc(NS(C)(=O)=O)ccc1Nc1c2ccccc2nc2cc(Cl)ccc12` [Compound M5] was tested. Which “ILS Observed” value did it give?
Answer: 72%

Question: How did the “ILS Observed” value turn out when `COc1cc(NS(C)(=O)=O)ccc1Nc1c2ccccc2nc2cc(Br)ccc12` [Compound M6] was run?
Answer: 119%

Question: `COc1cc(NS(C)(=O)=O)ccc1Nc1c2ccccc2nc2cc(I)ccc12` [Compound M7] was tested. Which “ILS Observed” value did it give?
Answer: 98%

Question: Which “ILS Observed” value does the source give for `COc1cc(NS(C)(=O)=O)ccc1Nc1c2ccccc2nc2cc(C(F)(F)F)ccc12` [Compound M8] here?
Answer: 63%

Question: How did the “ILS Observed” value turn out when `COc1cc(NS(C)(=O)=O)ccc1Nc1c2ccccc2nc2cc(N)ccc12` [Compound M9] was run?
Answer: 82%

Question: Which “ILS Observed” value does the source give for `CNc1ccc2c(Nc3ccc(NS(C)(=O)=O)cc3OC)c3ccccc3nc2c1` [Compound M10] here?
Answer: 94%

Question: For `COc1cc(NS(C)(=O)=O)ccc1Nc1c2ccccc2nc2cc([N+](=O)[O-])ccc12` [Compound M11], which “ILS Observed” value is on record?
Answer: 84%

Question: How did the “ILS Observed” value turn out when `COc1cc(NS(C)(=O)=O)ccc1Nc1c2ccccc2nc2c(C)cccc12` [Compound M12] was run?
Answer: 111%

Question: With `COc1cc(NS(C)(=O)=O)ccc1Nc1c2ccccc2nc2c(C(N)=O)cccc12` [Compound M13] as the molecule, how does the “ILS Observed” value read?
Answer: 112%

Question: Which “ILS Observed” value does the source give for `CNC(=O)c1cccc2c(Nc3ccc(NS(C)(=O)=O)cc3OC)c3ccccc3nc12` [Compound M14] here?
Answer: 135%

Question: Which “ILS Observed” value does the source give for `COc1cc(NS(C)(=O)=O)ccc1Nc1c2ccccc2nc2c(C(=O)NCC(N)=O)cccc12` [Compound M15] here?
Answer: 98%

Question: `COc1cc(NS(C)(=O)=O)ccc1Nc1c2ccccc2nc2c(OC)cccc12` [Compound M16] was tested. Which “ILS Observed” value did it give?
Answer: 110%
